These results are taken from patent US5756423A, “Method of controlling plants by inhibition of farnesyl pyrophosphate synthase” (Zeneca Limited, priority 1997, dated 1998).

Each structure is given as a SMILES string. Like-named read-outs stand apart in the source and are kept apart here.

For experiment [1], the system named is yellow nutsedge (Cyperus esculentus) (CYPES). Description: post-emergent herbicidal test, yellow nutsedge. Conditions: for pest or weed control at 1000 g/ha: Cyperus, post-emergence, read-out: CYPES percent control. It counts as in vivo. A digest of the protocol: (§1)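 Foliar spray, 1 and 4 kg/ha, 0.5% v/v Tween 20 aqueous; grasses 3–4 leaf, broadleaves 1–2 leaf stage, grown 10–12 d. Greenhouse 29/21 °C, 14 h light. Visual % control vs untreated, 17–21 d after treatment.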

The subject of experiment [2] is barnyard grass (Enchinochloa crusgalli) (ECHCG). Nature of the experiment: post-emergent herbicidal test, barnyard grass. The class given is in vivo. Conditions: for pest or weed control at 1000 g/ha: Echinochloa crus-galli, post-emergence, read-out: ECHCG percent control. A digest of the protocol: as §1
Experiment [3] relates to morningglory (Ipomoea spp.) (IPOSS). Description: post-emergent herbicidal test, morningglory. It counts as in vivo. Conditions: for pest or weed control at 1000 g/ha: Ipomoea, post-emergence, read-out: IPOSS percent control. The method in brief:
as §1

Experiment [4] concerns green foxtail (Setaria viridis) (SETVI). Nature of the experiment: post-emergent herbicidal test, green foxtail. It counts as in vivo. Conditions: for pest or weed control at 1000 g/ha: Setaria viridis, post-emergence, read-out: SETVI percent control. The method in brief:
as §1

The test system of experiment [5] is wild oat (Avena fatua) (AVEFA). Nature of the experiment: post-emergent herbicidal test, wild oat. The class given is in vivo. Conditions: for pest or weed control at 1000 g/ha: Avena fatua, post-emergence, read-out: AVEFA percent control. The method in brief: as §1
Experiment [6] has as its system farnesyl pyrophosphate synthase in daffodil chromoplasts. Description: inhibition of farnesyl pyrophosphate synthase in daffodil chromoplasts (14C-isopentenyl pyrophosphate incorporation). It counts as biochemical, Narcissus pseudonarcissus. Conditions: unit inferred, IC50 values in nM, read-out: IC50. A digest of the protocol:
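Daffodil chromoplasts in pH 7.7 sucrose/MgCl2/HEPES buffer with cysteine, NaF and BSA, started with ~3 micromolar 14C-isopentenyl pyrophosphate, 30 min at 30° C. Butanol-extractable radioactivity counted by scintillation; % residual activity calculated against zero-time and end-point no-inhibitor controls.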

Experiment [7] has as its system velvetleaf (Abutilon theophrasti) (ABUTH). Nature of the experiment: post-emergent herbicidal test, velvetleaf. The class given is in vivo. Conditions: for pest or weed control at 1000 g/ha: Abutilon theophrasti, post-emergence, read-out: ABUTH percent control. The method in brief:
as §1

For experiment [8], the system named is wild mustard (Brassica kaber), also known as Sinapis arvensis (SINAR). Nature of the experiment: post-emergent herbicidal test, wild mustard. It counts as in vivo. Conditions: for pest or weed control at 1000 g/ha: Brassica, post-emergence, read-out: SINAR percent control. The method in brief:
as §1

[9] abbreviates: post-emergent, 1.0 kg/ha (*), 17-21 days after application.

Take `CCCCN(CCCC)CC(P(=O)(O)O)P(=O)(O)O` [Compound 24]: the pest or weed control at 1000 g/ha in experiment [1] (setting [9]) worked out at 10%; in experiment [2] (setting [9]) it was 98%; in experiment [3] (setting [9]) it was 5%; in experiment [4] (setting [9]), 85%; in experiment [5] (setting [9]), 98%; in experiment [7] (setting [9]), 0%. In addition, the pest or weed control at 1000 g/ha in experiment [8] (setting [9]) is 30%. Moreover, the IC50 in experiment [6] (Table I) and in experiment [6] (Table II) was 190 nM throughout.

Consider `CNCC(P(=O)(O)O)P(=O)(O)O` [Compound 25], for which the pest or weed control at 1000 g/ha was 85% in experiment [1]; 100% in experiment [2]; 90% in experiment [3]; 100% in experiment [4]; 100% in experiment [5]; 98% in experiment [7]. The pest or weed control at 1000 g/ha in experiment [8] was 100%. In addition, the IC50 in experiment [6] (Table I) and in experiment [6] (Table II) was 1680 nM throughout.

Turning to `CC(NCC(P(=O)(O)O)P(=O)(O)O)c1ccccc1` (stereo not drawn) [Compound 26], the CYPES percent control in experiment [1] (setting [9]) came out at 5%. In addition, the pest or weed control at 1000 g/ha was found to be 80% in experiment [2] (setting [9]), 10% in experiment [3] (setting [9]) and 80% in experiment [5] (setting [9]). The same compound gave an SETVI percent control in experiment [4] (setting [9]) of 60%. Further, the IC50 in experiment [6] (Table I) and in experiment [6] (Table II) was 1430 nM in each case. In experiment [7] (setting [9]), the ABUTH percent control was found to be 20%. The compound further came in with an SINAR percent control in experiment [8] (setting [9]) of 40%.

For `CC(NCC(P(=O)(O)O)P(=O)(O)O)c1ccccc1` (stereo not drawn) [Compound 27], in experiment [1] (setting [9]), the CYPES percent control is on record as 75%. The same compound came in with an ECHCG percent control in experiment [2] (setting [9]) of 90%. The compound further yielded an IPOSS percent control in experiment [3] (setting [9]) of 5%. The compound further gave an SETVI percent control in experiment [4] (setting [9]) of 90%. In experiment [5] (setting [9]), the AVEFA percent control stood at 80%. The IC50 in experiment [6] (Table I) and in experiment [6] (Table II) was 1230 nM throughout. Further, the ABUTH percent control in experiment [7] (setting [9]) was 75%. In experiment [8] (setting [9]), this compound displayed an SINAR percent control of 100%.

For the compound `O=P(O)(O)C(CNCCc1ccccc1)P(=O)(O)O` [Compound 28], the pest or weed control at 1000 g/ha in experiment [1] (setting [9]) is 10%; in experiment [2] (setting [9]), 5%; in experiment [3] (setting [9]) it was 5%; in experiment [4] (setting [9]), 30%; in experiment [5] (setting [9]) it was 60%; in experiment [7] (setting [9]), 5%. Further, the pest or weed control at 1000 g/ha in experiment [8] (setting [9]) is 50%. Further, the IC50 in experiment [6] (Table I) and in experiment [6] (Table II) was 1410 nM in each case.

As to `O=P(O)(O)C(CN1CCCCCC1)P(=O)(O)O` [Compound 29], the pest or weed control at 1000 g/ha is 0% in experiment [1] (setting [9]); 60% in experiment [2] (setting [9]); 15% in experiment [3] (setting [9]); 60% in experiment [4] (setting [9]); 60% in experiment [5] (setting [9]); 0% in experiment [7] (setting [9]). For the same compound, the pest or weed control at 1000 g/ha in experiment [8] (setting [9]) turned out to be 85%. Also, the half-inhibitory concentration (IC50) in experiment [6] (Table I) and in experiment [6] (Table II) was 360 nM in each case.

Consider `CC1CCN(CC(P(=O)(O)O)P(=O)(O)O)CC1` [Compound 30], for which the pest or weed control at 1000 g/ha worked out at 5% in experiment [1] (setting [9]); 90% in experiment [2] (setting [9]); 30% in experiment [3] (setting [9]); 95% in experiment [4] (setting [9]); 90% in experiment [5] (setting [9]); 5% in experiment [7] (setting [9]). Besides, in experiment [8] (setting [9]), the pest or weed control at 1000 g/ha was 100%. For the same compound, the half-maximal inhibitory concentration (IC50) in experiment [6] (Table I) and in experiment [6] (Table II) was 266 nM in each case.
